Laboratory results as given in US7872040B2, “Receptor blocker and vasodilator comprising indole derivative as active ingredient” (priority 2004, dated 2011).

Key:
α2-adrenoceptor = experiment: Relaxation of clonidine-induced contraction of isolated rat thoracic aorta ring preparations (α2-receptor antagonistic and vasodilator effect); conditions: sample 10^-5 M; Wistar rat thoracic aorta rings contracted with clonidine (10^-7 M or 10^-6 M) in presence of L-NAME 10^-4 M; mean±standard error
Text: (1) Preparation of Blood Vessel
Male Wistar rats were euthanized by cervical dislocation under ether anesthesia or without anesthesia and then exsanguinated by cutting the carotid arteries. Immediately thereafter, the thoracic aortae were isolated by thoracotomy. The isolated preparations were held in Krebs-Hepes solutions [mM: NaCl, 126.9; KCl, 5.9; CaCl2, 2.36; MgCl2, 1.18; Hepes, 10.03; glucose, 11.8 (pH=7.4)] gassed with O2 (100%). The connective tissues and adipose tissues were carefully removed under a stereoscopic microscope. Then, the aortic tissue was cut into ring preparations approximately 2 mm in length to use in the experiment. The vascular endothelium was not removed.
(2) Measurement of Muscle Contractile/Relaxant Response
The blood vessel preparations were held in an organ bath (UC-5TD, UFER™ Medical Instrument, Kyoto, Japan) containing 5 ml of Normal Tyrode's solution gassed with 95% O2-5% CO2. Two stainless hooks were used to suspend the preparations. Tension changes were recorded isometrically via tension transducers (T7-8-240, ORIENTEC Co., Ltd, Tokyo, Japan; and TB-611T, NIHON KOHDEN Corp., Tokyo, Japan) and amplifiers (AP-600G and AP-621G, NIHON KOHDEN Corp., Tokyo, Japan; and MSC-2, Labo Support Corporation, Osaka, Japan). Passive tension was set to the optimum tension of 2.0 g. The composition of the Normal Tyrode's solution was as follows: (mM): NaCl, 158.3; KCl, 4.0; CaCl2, 2.0; MgCl2, 1.05; NaH2PO4, 0.42; NaHCO3, 10.0; glucose, 5.6 (pH=7.4, 37±0.5° C.).
The preparations were then incubated for 60 to 90 minutes in Normal Tyrode's solution, which was replaced with 20-minute to 30-minute intervals. To start the experiment, the preparations were first allowed to contract with a high potassium solution (high-KCl, 80 mM KCl) [composition (mM): NaCl, 82.3; KCl, 80.0; CaCl2, 2.0; MgCl2, 1.05; NaH2PO4, 0.42; NaHCO3, 10.0; glucose, 5.6 (pH=7.4)] to confirm that the preparations normally contracted. Then, the preparations were washed with a Normal Tyrode's solution, and the experiment was started.
For the purpose of evaluating the potencies of indole derivatives tested, the artery preparations were stimulated with an α2-adrenoceptor agonist clonidine hydrochloride (Wako Pure Chemical Industries, Ltd., Osaka, Japan) (10^−7 M or 10^−6 M) in the presence of an NO synthase inhibitor N^G-nitro-L-arginine methyl ester (DOJNDO Laboratories, Kumamoto, Japan) (10^−4 M) to thereby induce continuous contraction. After developed tension reached a steady-sate level, samples (indole derivatives) (10^−5 M) were administered to the bath solution. After the relaxant effects of the samples reached the maximum levels, an α2-adrenoceptor antagonist yohimbine hydrochloride (Wako Pure Chemical Industries, Ltd., Osaka, Japan) (10^−5 M) was administered to the bath solution. Relaxant response to yohimbine hydrochloride (10^−5 M) and the height of contraction immediately before sample administration were defined as the maximum relaxation (=100%) and 0%, respectively, and the relaxant effect of the samples were expressed as percentages relative to the maximum relaxation to yohimbine hydrochloride (10^−5 M).
The indole derivatives (samples Nos. 1 to 23) were dissolved in 100% dimethyl sulfoxide at a concentration of 10^−2 M just before use and administered to a 5-mL organ bath for evaluation. All the other drugs were dissolved and diluted in distilled water.
The results were expressed as mean±standard error.

[1] = Clinical report: one test subject took sample No. 16 for 9 months and was followed up; type: in vivo, human
Protocol: A test subject was allowed to take the indole derivative (N-nonanoylindole-3-ethaneamine) of the sample No. 16 for 9 months, and followed up.
Test subject: healthy, 67 kg in body weight
Information before medication: non-smoking, approximately 180 ml of sake per week, well-balanced diets (meats, vegetables, and fishes) without fatty eating. The test subject has 100% white hair and goes to a barber shop once every five weeks. Their mustaches are sparse and remain in an unobtrusive growth state by shaving approximately once every two days. They are in the habit of jogging on Sunday. Muscle ache occurs about two days after the jogging and lasts for approximately 4 days. They feel insecure in erection (ED for approximately half a year).
Dosage and administration: two doses per day, administered at 1 mg around 12 p.m. and at 1 mg around 0 a.m.

[2] = after one month, 1 mg two doses per day

COc1ccc2[nH]cc(CCNC(C)=O)c2c1 [compound 1, N-acetyl-5-methoxyindole-3-ethaneamine, reference compound]
Reaction (%): relaxant effect relative to the maximum relaxation to yohimbine hydrochloride (10^-5 M) (α2-adrenoceptor): 6.7 ± 6.7%

COc1ccc2c(c1)c(CCNC(C)=O)cn2C(C)=O [compound 2, N,1-diacetyl-5-methoxyindole-3-ethaneamine]
Reaction (%): relaxant effect relative to the maximum relaxation to yohimbine hydrochloride (10^-5 M) (α2-adrenoceptor): 18.5 ± 9.8%

COc1ccc2[nH]cc(CCN(C(C)=O)C(C)=O)c2c1 [compound 3, N,N-diacetyl-5-methoxyindole-3-ethaneamine]
Reaction (%): relaxant effect relative to the maximum relaxation to yohimbine hydrochloride (10^-5 M) (α2-adrenoceptor): 25.6 ± 7.5%

COc1ccc2[nH]cc(CCNC(C)=O)c2c1Br [compound 4, N-acetyl-4-bromo-5-methoxyindole-3-ethaneamine]
Reaction (%): relaxant effect relative to the maximum relaxation to yohimbine hydrochloride (10^-5 M) (α2-adrenoceptor): 20.3 ± 4.6%

COc1ccc2[nH]c(Br)c(CCNC(C)=O)c2c1 [compound 5, N-acetyl-2-bromo-5-methoxyindole-3-ethaneamine]
Reaction (%): relaxant effect relative to the maximum relaxation to yohimbine hydrochloride (10^-5 M) (α2-adrenoceptor): 43.1 ± 16.0%

COc1cc2c(CCNC(C)=O)c(Br)[nH]c2cc1Br [compound 6, N-acetyl-2,6-dibromo-5-methoxyindole-3-ethaneamine]
Reaction (%): relaxant effect relative to the maximum relaxation to yohimbine hydrochloride (10^-5 M) (α2-adrenoceptor): 64.0 ± 4.1%

COc1ccc2[nH]c(Br)c(CCNC(C)=O)c2c1Br [compound 7, N-acetyl-2,4-dibromo-5-methoxyindole-3-ethaneamine]
Reaction (%): relaxant effect relative to the maximum relaxation to yohimbine hydrochloride (10^-5 M) (α2-adrenoceptor): 73.5 ± 15.3%

COc1c(Br)cc2[nH]c(Br)c(CCNC(C)=O)c2c1Br [compound 8, N-acetyl-2,4,6-tribromo-5-methoxyindole-3-ethaneamine]
Reaction (%): relaxant effect relative to the maximum relaxation to yohimbine hydrochloride (10^-5 M) (α2-adrenoceptor): 85.6 ± 12.0%

COc1c(Br)cc2c(c1Br)c(CCNC(C)=O)c(Br)n2C(C)=O [compound 9, N,1-diacetyl-2,4,6-tribromo-5-methoxyindole-3-ethaneamine]
Reaction (%): relaxant effect relative to the maximum relaxation to yohimbine hydrochloride (10^-5 M) (α2-adrenoceptor): 97.6 ± 2.4%

O=C(NCCc1c[nH]c2ccccc12)C1CC1 [compound 10, N-cyclopropylcarbonylindole-3-ethaneamine]
Reaction (%): relaxant effect relative to the maximum relaxation to yohimbine hydrochloride (10^-5 M) (α2-adrenoceptor): 21.4%

O=C(NCCc1cn(O)c2ccccc12)C1CC1 [compound 11, 1-hydroxy-N-cyclopropylcarbonylindole-3-ethaneamine]
Reaction (%): relaxant effect relative to the maximum relaxation to yohimbine hydrochloride (10^-5 M) (α2-adrenoceptor): 15.7 ± 6.8%

CCCCC(=O)NCCc1c[nH]c2ccccc12 [compound 12, N-pentanoylindole-3-ethaneamine]
Reaction (%): relaxant effect relative to the maximum relaxation to yohimbine hydrochloride (10^-5 M) (α2-adrenoceptor): 26.9 ± 11.4%

CCCCC(=O)NCCc1cn(O)c2ccccc12 [compound 13, 1-hydroxy-N-pentanoylindole-3-ethaneamine]
Reaction (%): relaxant effect relative to the maximum relaxation to yohimbine hydrochloride (10^-5 M) (α2-adrenoceptor): 25.6 ± 6.0%

CCCCCCC(=O)NCCc1c[nH]c2ccccc12 [compound 14, N-heptanoylindole-3-ethaneamine]
Reaction (%): relaxant effect relative to the maximum relaxation to yohimbine hydrochloride (10^-5 M) (α2-adrenoceptor): 70.0 ± 6.9%

CCCCCCC(=O)NCCc1cn(O)c2ccccc12 [compound 15, 1-hydroxy-N-heptanoylindole-3-ethaneamine]
Reaction (%): relaxant effect relative to the maximum relaxation to yohimbine hydrochloride (10^-5 M) (α2-adrenoceptor): 66.2 ± 13.9%

CCCCCCCCC(=O)NCCc1c[nH]c2ccccc12 [compound 16, N-nonanoylindole-3-ethaneamine]
erection ([1]; after nine months): became equal to that in their newly-married days | hair regrowth ([1]; after nine months): approximately half the hairs in the whole head except for the left frontal part of the temporal region were black hairs | muscle ache after jogging ([1]; after nine months): rapidly disappeared in one day | skin tone and complexion ([1]; after nine months): improved | erection ([1]; after one month): considerably improved | memory ([1]; after one month): memory was improved | muscle ache after jogging ([1]; after one month): slight | growth of the black hairs [1, 2]: approximately 0.5 mm per day | hair regrowth [1, 2]: black hairs were observed to grow in the scalp of the frontal part of the parietal region that had no hair | erection ([1]; after three months): improved | hair regrowth ([1]; after three months): Many black hairs were observed to grow throughout the head except for the left frontal part of the temporal region | memory ([1]; after three months): memory and retentive powers were recovered | time until muscle ache after jogging disappeared ([1]; after three months): 2 days | duration of dilation of cutaneous and penile blood vessels ([1]; person, 1 mg two doses per day): approximately 10 hours | Reaction (%): relaxant effect relative to the maximum relaxation to yohimbine hydrochloride (10^-5 M) (α2-adrenoceptor): 80.7 ± 2.5%

CCCCCCCCC(=O)NCCc1cn(O)c2ccccc12 [compound 17, 1-hydroxy-N-nonanoylindole-3-ethaneamine]
Reaction (%): relaxant effect relative to the maximum relaxation to yohimbine hydrochloride (10^-5 M) (α2-adrenoceptor): 79.0 ± 13%

O=C(CCCc1c[nH]c2ccccc12)NC12CC3CC(CC(C3)C1)C2 [compound 18, N-adamantyl-4-(indole-3-yl)butaneamide]
Reaction (%): relaxant effect relative to the maximum relaxation to yohimbine hydrochloride (10^-5 M) (α2-adrenoceptor): 58.6 ± 10.6%

O=C(CCCc1c[nH]c2ccccc12)NC12CC3CC(CC(C3)C1)C2 [compound 23, N-adamantyl-4-(indole-3-yl)butaneamide]
Reaction (%): relaxant effect relative to the maximum relaxation to yohimbine hydrochloride (10^-5 M) (α2-adrenoceptor): 91.5 ± 1.32%

N-adamantyl-2-(1-hydroxyindole-3-yl)acetamide [compound 22]
Reaction (%): relaxant effect relative to the maximum relaxation to yohimbine hydrochloride (10^-5 M) (α2-adrenoceptor): 100.0 ± 0.00%

N-adamantyl-2-(indole-3-yl)acetamide [compound 20]
Reaction (%): relaxant effect relative to the maximum relaxation to yohimbine hydrochloride (10^-5 M) (α2-adrenoceptor): 64.2 ± 8.70%

N-adamantyl-3-(indole-3-yl)propaneamide [compound 19]
Reaction (%): relaxant effect relative to the maximum relaxation to yohimbine hydrochloride (10^-5 M) (α2-adrenoceptor): 60.6 ± 20.7%

N-adamantyl-4-(1-hydroxyindole-3-yl)butaneamide [compound 21]
Reaction (%): relaxant effect relative to the maximum relaxation to yohimbine hydrochloride (10^-5 M) (α2-adrenoceptor): 87.7 ± 8.53%
